Assay results from patent US7300934B2, “Benzamide nitriles” (Roche Palo Alto LLC, priority 2003, dated 2007).

CC(C)C[C@@H](C#N)NC(=O)[C@@H]1CCCC[C@@H]1NC(=O)c1ccc(-n2cncn2)cc1 [Compound 32, N-[(1S,2R)-2-({[(1S)-1-cyano-3-methylbutyl]amino}carbonyl)cyclohexyl]-4-(1H-1,2,4-triazol-1-yl)benzamide]
melting point: 156 to 158.9 °C
